Experimental data: patent publication US20260373176A1, “Compounds Targeting KRAS G12D Mutations and Their Uses” (InnoPharmaScreen Inc., priority 2023, published 2026)
“Also recorded” adds a separate entry of the source.

Assays:
KRAS = details: PROTAC recruiting CRBN; cited from earlier work
CRBN-KRAS G12D = molecular target: T1, CRBN-KRAS G12D (Homo sapiens, UniProt P01116+Q96SW2, G12D); assay: SPR ternary complex formation assay of CRBN-KRAS G12D-MG (1:1 Langmuir binding model)
T1 construct: His-tag (for the complex); purchased Abcam (KRAS G12D); R&D systems (CUL4A/RBX1/DDB1/CRBN complex) ab268712; E3-650
Procedure: (§1) CaCo-2 (ATTC), H1975 (CRL-5908) and LS-180 (CCL-187) cells were obtained from ATCC, expanded immediately, and frozen down. Vials were thawed and used within 20 passages. SNU-407, SNU-1033 and SK-LU-1 cells were obtained from Korean Cell Line Bank, expanded immediately, and frozen down. Vials were thawed and used within 20 passages. Caco-2 cells were cultured in MEM (Welgene, LM007-07) supplemented with 10% FBS GenDEPOT; cat. no. F0900-050) and 1% Antibiotic Antimycotic solution (Welgene; cat. No. LS203-01). H1975, SNU-407, SNU-1033 cells were cultured in RPMI (Welgene, LM011-03) supplemented with 10% FBS GenDEPOT; cat. no. F0900-050) and 1% Antibiotic Antimycotic solution (Welgene; cat. No. LS203-01). SK-LU-1 and LS-180 cells were cultured in DMEM (Welgene, LM001-05) supplemented with 10% FBS GenDEPOT; cat. no. F0900-050) and 1% Antibiotic Antimycotic solution (Welgene; cat. No. LS203-01). PBS (Welgene; cat. no. LB004-02) was used to wash cells and 0.25% Trypsin-EDTA (Welgene; cat. no. LS015-01) was used to detach cells for passaging. KRAS Mouse Monoclonal Antibody was purchased from Origene (cat. no. TA801672), anti-3-actin was purchased from AB Frontier (cat. no. LF-MA20055). […]
The injection was performed at a flow rate and for a contact time according to the Korea University Stem cell Lab guidelines. […] The sensorgrams were recorded using the embedded software imSPR-mini v 1.1.0. […]

KRAS G12D [1] = molecular target: T2, KRAS G12D (Homo sapiens, UniProt P01116+Q96SW2, G12D); assay: Western blot analysis of KRAS G12D degradation in cells; format: cell-based; set-up: degradation by molecular glue via endogenous CRBN, western blot
Procedure: 2.0×10^5 cells were seeded into 6-well plates (SPL; cat. no. 30006). The next day, media was removed, and cells were treated with 0, 1, 5, 10, 50, 100 μM KRAS-MG in serum free media. For 24 h, 48 h, and 72 h. Cells were lysed using a RIPA buffer and clarified at 21,000×g for 15 min at 4 °C. Protein concentration of the supernatant was measured using a BCA reagent. (Thermofisher; cat. no. 23225) incubated at 37 °C for 30 mins. For each sample, equal amounts of protein were denatured and fractionated by Novex Wedge Well 4-20% Tris-Glycine Mini Gels (Invitrogen cat. no. XP04205BOX), and then transferred onto a Immobilon-PVDF Membrane membranes (Merck, cat. no. IPVH00010) at 80 V for 1 h at 4 °C. Membranes were blocked by placing them in a 5% BSA in Tris-buffered saline with Tween-20 (TBST; 20 mM Tris, 150 mM NaCl, 0.1% Tween-20) for 1 h. Membranes were then incubated overnight at 4 °C with primary antibodies against KRAS (1:1000, invitrogen: #703345), GAPDH (1:2000, Cell signaling #2118). After three washes with TBST, membranes were incubated with the appropriate HRP-conjugated secondary antibodies (1:1000, KwikQuant #R1006) for 1 hour RT. After three washing. Detection of bound antibodies was carried out using ECL reagents (KwikQuant #R1004) and bands were detected by ATTO Luminograph III Lite. The intensity of the KRAS band was quantified using ImageJ software and normalized to the intensity of GAPDH band.

KRAS G12D [2] = molecular target: T2, KRAS G12D; assay: IPS-Chip PPIExplorer solid-phase cell-free ubiquitination of KRAS G12D using CRBN; format: biochemical; set-up: His-tagged CUL4A/RBX1/DDB1/CRBN E3; UBE1 (E1) and UbcH5a/UBE2D1 (E2) as helper enzymes; details: in the presence of CRBN, E1, E2, ubiquitin and ATP
Procedure: as §1, with “passaging.” for “passaging. KRAS Mouse Monoclonal Antibody was purchased from Origene (cat. no. TA801672), anti-3-actin was purchased from AB Frontier (cat. no. LF-MA20055).”
The 0.2 mg/ml 6× His tag monoclonal antibody was diluted in 30% glycerol in 1×PBS, pH 7.4, was spotted onto the IPS-Chip for 16 h at 4 °C. […] To detect polyubiquitination signals, the chip was scanned using a GenePix Pro 6.0 (Axon Instruments, CA, USA), and the data analyzed with an Origin 6.1 (Originlab, MA, USA).

KRAS WT = molecular target: T3, KRAS WT (Homo sapiens, UniProt P01116+Q96SW2); assay: Western blot analysis of KRAS WT degradation in Caco-2 cells; format: cell-based
T3 construct: molecular glue degradation via endogenous CRBN, western blot
Procedure: as §1, with “LS203-01).” for “LS203-01). PBS (Welgene; cat. no. LB004-02) was used to wash cells and 0.25% Trypsin-EDTA (Welgene; cat. no. LS015-01) was used to detach cells for passaging. KRAS Mouse Monoclonal Antibody was purchased from Origene (cat. no. TA801672), anti-3-actin was purchased from AB Frontier (cat. no. LF-MA20055).”
2.0×10^5 cells were seeded into 6-well plates (SPL; cat. no. 30006). […] Protein concentration of the supernatant was measured using a BCA reagent. […] Detection of bound antibodies was carried out using ECL reagents (KwikQuant #R1004) and bands were detected by ATTO Luminograph III Lite. The intensity of the KRAS band was quantified using ImageJ software and normalized to the intensity of GAPDH band.

[3] = tested on: AsPC-1 pancreatic cancer cells; assay: In vivo tumor growth, AsPC-1 xenograft mice; set-up: species or system mouse (BALB/c nu/nu nude mice)
Procedure: We have conducted the in vivo tumor growth assay using AsPC-1 pancreatic cancer cell-implanted xenograft animals by requesting Eins solution (Gwanggyo, Korea).
Experimental procedures that involved animals and their care were conducted in compliance with the Guide for the Care and Use of Laboratory Animals15 and ARRIVE guidelines. Animal experiments were approved by Animal Care and Use Committee of Woojung center for phenogenomics (Hwasung, Korea) and conducted at WoojungBio Inc. (Hwasung, Korea) in accordance with the guidelines. BA LB/C (nu/nu) nude mice of both genders aged 6 weeks and weighing 16-22 g were purchased from Nara biotech Co, Ltd. (Seoul, Korea). The mice were housed in a pathogen-free environment at a temperature of 25 °C and relative air humidity between 45 and 50%. All surgeries were performed in a sterile environment. To establish subcutaneous […] tumors, 1×10^6 AsPC-1 cells/100 μL were subcutaneously injected into the left groin region of BALB/nu nu male mice (7 weeks old; Nara Biotech Inc., Seoul, Korea). Immediately before treatment, IPS-06061 was dissolved in DMSO and then diluted tenfold in normal saline. Tumor-baring mice in vehicle control, IPS-06061 (low), and IPS-06061 (high) groups were injected intravenously with vehicle (1:10 DMSO to saline, v/v), 30 mg/kg IPS-06061 solution, or 80 mg/kg IPS-06061 solution, respectively, twice a week for 28 days (n=10 mice per major group) (FIG. 11). Tumor growth rate was recorded on day 7, 14, 21, and 28 by measuring the major and minor axes with a digital caliper. Measurements were transformed into tumor volumes using the formula tumor volume (mm^3)=major axis×minor axis^2×0.5. Tumor, liver, and kidneys were collected from major groups on day 28 within 3 h of the last injection and weighed. The tumors were subsequently frozen in liquid nitrogen and stored at −80 °C until homogenization for western blotting.
To confirm the anti-tumor effect of IPS-06061, we employed a xenograft mouse model implanting AsPC-1 pancreatic cancer cells. After the tumor volume had grown to approximately 100 mm^3, IPS-06061 was administered […] twice a week for 28 days. […] Toxicity was assessed by measuring body weight, food intake, complete blood cell count, and biochemical blood chemistry.

[4] = Toxicity in AsPC-1 xenograft mice (body weight, food intake, blood count, blood chemistry); format: in vivo, mouse (BALB/c nu/nu nude mice)
Procedure: Experimental procedures that involved animals and their care were conducted in compliance with the Guide for the Care and Use of Laboratory Animals15 and ARRIVE guidelines. Animal experiments were approved by Animal Care and Use Committee of Woojung center for phenogenomics (Hwasung, Korea) and conducted at WoojungBio Inc. (Hwasung, Korea) in accordance with the guidelines. BA LB/C (nu/nu) nude mice of both genders aged 6 weeks and weighing 16-22 g were purchased from Nara biotech Co, Ltd. (Seoul, Korea). The mice were housed in a pathogen-free environment at a temperature of 25 °C and relative air humidity between 45 and 50%. All surgeries were performed in a sterile environment. To establish subcutaneous […] tumors, 1×10^6 AsPC-1 cells/100 μL were subcutaneously injected into the left groin region of BALB/nu nu male mice (7 weeks old; Nara Biotech Inc., Seoul, Korea). Immediately before treatment, IPS-06061 was dissolved in DMSO and then diluted tenfold in normal saline. […] Tumor growth rate was recorded on day 7, 14, 21, and 28 by measuring the major and minor axes with a digital caliper. […]
To confirm the anti-tumor effect of IPS-06061, we employed a xenograft mouse model implanting AsPC-1 pancreatic cancer cells. […] Toxicity was assessed by measuring body weight, food intake, complete blood cell count, and biochemical blood chemistry.

KRAS G12D [5] = assay: KRAS G12D degradation in AsPC-1 xenograft mice; format: in vivo, mouse (BALB/c nu/nu nude mice); details: 80 mpk BiW, oral; at 28 days after treatment

selectivity for KRAS G12D over KRAS WT (CRBN-KRAS G12D; KRAS G12D vs KRAS WT)	Dmax (KRAS G12D [1]; ASPC1, KRAS G12D degradation, AsPC-1 cells) [%]	DC50 (KRAS G12D [1]; KRAS G12D degradation, AsPC-1 cells) [nM]	Compound	poly-ubiquitination and degradation of KRAS (KRAS)	ternary complex formation / binding to KRAS G12D (CRBN-KRAS G12D; CRBN + KRAS G12D)	degradation of KRAS G12D (KRAS G12D [1]; western blot, AsPC-1 pancreatic cancer cells)	ubiquitination of KRAS G12D (KRAS G12D [2])	effect on degradation of KRAS WT (KRAS WT)	TGI ([3]; 80 mpk BiW, oral, AsPC-1 xenograft mice)	anti-cancer activity ([3]; AsPC-1 xenograft mice)	mean tumor growth vs vehicle ([3]; high dose 80 mpk, oral, twice a week for 28 days)	tumor weight ([3]; oral, twice a week for 28 days)	body weight effect ([4]; AsPC-1 xenograft mice, twice a week, 28 days)	decreases in weight and food intake ([4]; oral, twice a week for 28 days, vs vehicle group)	Maximum degradation (KRAS G12D [5]) [%]
			C=C(F)C(=O)N1CCN(c2nc(OC[C@@H]3CCCN3CCCOCCC(=O)N[C@H](C(=O)N3C[C@H](O)C[C@H]3C(=O)NCc3ccc(-c4scnc4C)cc3)C(C)(C)C)nc3c2CCN(c2cccc4cccc(Cl)c24)C3)C[C@@H]1CC#N [LC2]	poly-ubiquitination of KRAS, thus proteosome-mediated degradation of the protein											
High selective for KRAS G12D	> 90	< 500	CCOC(=O)[C@H](CCc1ccccc1)N[C@@H](C)C(=O)c1ccccc1 [IPS-06061, ethyl (2S)-2-((1-oxo-1-phenylpropan-2-yl)amino)-4-phenylbutanoate]		binds specifically to KRAS G12D, forming a ternary complex	Time-dependent degradation of KRAS G12D; also recorded: degrades KRAS G12D mutant	promoted the ubiquitination of KRAS G12D in a dose-dependent manner	no effect on the degradation of KRAS WT; also recorded: without affecting KRAS Wild Type	~ 100%	strong anti-cancer activity	remarkably reduced	significantly reduced tumor weight	No body weight effect	such differences were not noted	> 75
